According to patent publication US9629851B2, “ROCK in combination with MAPK pathway” (Stichting Het Nederlands Kanker Instituut—Antoni van …, priority 2013, dated 2017):

How the values were obtained:
[1] = test system: NRAS mutant melanoma cell lines; assay: short-term viability assay (CellTiter-Blue, 3 days); type: cell-based, human; settings: treatment-naïve NRAS mutant melanoma cell lines; ROCK inhibitor added to MAPK/ERK pathway inhibitor
Procedure: FIG. 1A: NRAS mutant melanoma cell lines are sensitive to combinations of ROCK and MEK or ERK inhibitors; Cells were treated with a dilution series of ROCK inhibitor (left panel), MEK inhibitor (middle panel) or ERK inhibitor (right panel) either alone or in combination with MEK/ERK/ROCK inhibitor as indicated. After 3 days total cell numbers were determined with a Cell Titer-Blue assay. The y-axis represents the percentage of living cells.
(§1) For short-term viability assays of inhibitors, cells were plated in 96-well format and treated on the next day with a dilution range of one inhibitor with or without a second inhibitor with a concentration as mentioned in the figure. After 3 days, cells were incubated with CellTiter-Blue (Promega) and fluorescence was measured with a TECAN Infinite M200 microplate reader. For proliferation assays, equal cell numbers were plated on 6 well dishes. The next day, cells were treated with one or more inhibitors and refreshed with medium with inhibitors every 3-4 days. […]
To model inhibitor sensitivity of treatment-naïve NRAS mutant melanoma we made use of a panel of human metastatic melanoma cell lines carrying activating mutations in NRAS codon 61 (R, K, N), including cell lines available in the prior art. […] Presence of the NRAS mutation and absence of exon 15 BRAF mutations has been determined by conventional sequencing. […]

[2] = test system: NRAS mutant melanoma cells SK-MEL-147; assay: SK-MEL-147 xenograft in NOD/SCID mice; type: in vivo; settings: GSK1120212 0.05 mg/kg or GSK269962A 10 mg/kg alone, oral gavage once daily
Procedure: Melanoma cells (5*10^5 SK-MEL-147) were subcutaneously injected into both flanks of NOD/SCID mice. Tumor sizes were measured with a caliper and tumor volume was calculated by the formula (a*b^2)/2 with ‘a’ being the longest diameter and ‘b’ the respective perpendicular diameter of the tumor. After the tumors reached a size of 20-100 mm3, mice received by oral gavage either vehicle, GSK1120212 (MEKi), (0.05 mg/kg), 10 mg/kg GSK269962A (ROCKi) or both drugs. N=10 for each group, except for ROCKi n=8. Error bars represent standard error of the mean (SEM).
Six to ten week old male NOD/SCID mice were subcutaneously injected with 5*10^5 cells into both flanks. After the tumors reached a size of 50-150 mm^3 mice were treated with 0.05 or 0.1 mg/kg MEK inhibitor (GSK1120212) and/or ROCK inhibitor (GSK266962A, 10 mg/kg). Both GSK1120212 and GSK269962A were applied by oral gavage (in 5% Tween80, 3.25% ethanol, DMSO for GSK1120212 and in 10% Tween80, 6.5% ethanol, 10% DMSO for GSK266962A). Tumors were measured twice a week with a caliper. Tumor volume was calculated by the formula (a*b2)/2, with ‘a’ being the longest diameter and b′ the respective perpendicular diameter of the tumor. Mice were euthanized by CO2 when tumors reached a volume of 1 cm3, according to a protocol approved by the Institutional Animal Experiment Ethics Committee. […]

[3] = test system: NRAS mutant melanoma patients; settings: cited from earlier work
[4] = test system: BRAF mutant melanoma patients; settings: cited from earlier work
[5] = test system: MEK; settings: cited from earlier work
[6] = test system: ERK inhibitor resistant sublines of BLM; assay: inhibitor sensitivity of resistant sublines versus parental line; type: cell-based, human; settings: sublines grown in 1 μM SCH772984
Procedure: NRAS Mutation: Q61R BLM, SK-MEL-147. BRAF mutation: Mel 95.03, mel 888. All cell lines were cultured in Dulbecco's modified Eagle's Medium (DMEM, Gibco) supplemented with 9% fetal calf serum (Sigma) and 1% glutamine. To generate MEK and ERK inhibitor resistant sublines, cells were plated on 10 cm dishes. Medium containing 1 μM SCH772984 was added the next day and changed twice a week. After 2 weeks colonies were picked and expanded in the presence of the inhibitor. In addition, multiple colonies per 10 cm dish were trypsinized and expanded to obtain resistant pools.
as §1, with “days. Cells were stained with crystal violet after 7-11 days of treatment.” for “days.”
We assessed sensitivity to a panel of other inhibitors including ROCK inhibitors but observed mainly slight differences.

[7] = target: c-Raf (Homo sapiens, UniProt P04049); settings: B-Raf less than c-Raf; cited from earlier work
Sequence of c-Raf (P04049 whole entry): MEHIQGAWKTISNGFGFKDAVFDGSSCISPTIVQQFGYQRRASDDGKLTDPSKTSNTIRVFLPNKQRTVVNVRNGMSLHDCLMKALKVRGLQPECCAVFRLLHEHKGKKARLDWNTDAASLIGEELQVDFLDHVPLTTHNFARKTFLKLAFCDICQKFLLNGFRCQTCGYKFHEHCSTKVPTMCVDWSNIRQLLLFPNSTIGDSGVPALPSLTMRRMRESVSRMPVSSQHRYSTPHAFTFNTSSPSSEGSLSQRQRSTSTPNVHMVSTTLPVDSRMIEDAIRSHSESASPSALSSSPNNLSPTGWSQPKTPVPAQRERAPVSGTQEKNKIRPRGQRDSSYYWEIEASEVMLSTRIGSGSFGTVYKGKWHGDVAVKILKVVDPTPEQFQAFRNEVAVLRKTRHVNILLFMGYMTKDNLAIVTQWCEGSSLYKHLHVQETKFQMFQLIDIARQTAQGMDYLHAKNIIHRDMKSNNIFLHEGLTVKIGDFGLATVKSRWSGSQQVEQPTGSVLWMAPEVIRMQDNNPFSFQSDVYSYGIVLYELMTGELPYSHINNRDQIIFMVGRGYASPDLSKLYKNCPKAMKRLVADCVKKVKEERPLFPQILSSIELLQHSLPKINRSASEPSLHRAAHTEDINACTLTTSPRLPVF

## O=S(=O)(c1cccc2cnccc12)N1CCCNCC1 [Fasudil]
[1]
  sensitization to MEK or ERK inhibitors: sensitizers

## CCn1c(-c2nonc2N)nc2cnc(Oc3cccc(NC(=O)c4ccc(OCCN5CCOCC5)cc4)c3)cc21 [GSK269962A]
[1]
  sensitization to MEK or ERK inhibitors: sensitizers
[2]
  effect as single agent: only a weak effect as single agents

## Cn1cnc2c(F)c(Nc3ccc(Br)cc3F)c(C(=O)NOCCO)cc21 [MEK162]
[3]
  median time to develop resistance: 3.7 months
[4]
  median time to develop resistance: 3.3 months

## O=C(NOCC1CC1)c1ccc(F)c(F)c1Nc1ccc(I)cc1Cl [PDI 84352]
[5]
  specificity and potency compared to other known MEK inhibitors: high degree of specificity and potency

## Oc1cccc(-c2nc(N3CCOCC3)c3oc4ncccc4c3n2)c1 [PI-103]
[6]
  sensitivity of resistant sublines compared with parental line: as sensitive to the dual PI3K/mTOR inhibitor PI-103 as the parental line

## Cc1ccc(NC(=O)c2cccc(N(C)C)c2)cc1NC(=O)c1ccc(O)cc1 [ZM 336372]
[7]
  potency for B-Raf relative to c-Raf: c-Raf, (B-Raf 10fold
